Assay [1] concerns the target T1, human TDO (TDO-expressing HEK293 cells) (Homo sapiens, UniProt P48775).
T1 construct: expressed in transfected cells
The experiment in a line: Cell based kynurenine assay, TDO-expressing HEK293 cell clones. The conditions noted are these: TDO-expressing HEK293 cells, 24 hours incubation; geometric mean; read-out: HEK293 TDO Kynurenine GMean IC50 (μM) (Cellular Assay). Put shortly: (§1)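 Kynurenine in culture supernatant read after 24 h compound exposure of HEK293 cells stably expressing human IDO1 or TDO. IC50 from nonlinear regression of % inhibition relative to 0.2% DMSO cell (high) and media-only (low) controls.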

The target of assay [2] is T2, Human Tryptophan 2,3-dioxygenase (TDO) (Homo sapiens, UniProt P48775).
T2 construct: His tag (N); made in house; host or cells: E. coli
The experiment in a line: Human TDO enzymatic assay (kynurenine level). The format is biochemical. The conditions noted are these: 1 nM TDO, 350 μM L-Trp; geometric mean; read-out: TDO GMean: IC50 (μM) (Biochemical Assay). Put shortly:
(§2)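 Reactions were stopped with TCA, converting N-formylkynurenine to kynurenine for quantitation, with IC50 by nonlinear regression. IDO: 6 nM enzyme, 10 μM L-Trp, 20 min RT. TDO: 1 nM enzyme, 350 μM L-Trp, 70 min RT, both in pH 6.5 buffer.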

Assay [3] has as its target T3, Human Indoleamine 2,3-dioxygenase (IDO) (Homo sapiens, UniProt P14902).
T3 construct: His tag (N); made in house; host or cells: E. coli
The experiment in a line: Human IDO enzymatic assay (kynurenine level). The format is biochemical. Conditions: 6 nM IDO, 10 μM L-Trp; geometric mean; read-out: IDO1 GMean: IC50 (μM) (Biochemical Assay). In outline: as §2

The target in assay [4] is T4, human IDO (IDO1-expressing HEK293 cells) (Homo sapiens, UniProt P14902).
T4 construct: expressed in transfected cells
The experiment in a line: Cell based kynurenine assay, IDO1-expressing HEK293 cell clones. Conditions: IDO1-expressing HEK293 cells, 24 hours incubation; geometric mean; read-out: HEK293 IDO1 Kynurenine GMean IC50 (μM) (Cellular Assay). Put shortly:
as §1

T2 sequence (P48775 whole entry): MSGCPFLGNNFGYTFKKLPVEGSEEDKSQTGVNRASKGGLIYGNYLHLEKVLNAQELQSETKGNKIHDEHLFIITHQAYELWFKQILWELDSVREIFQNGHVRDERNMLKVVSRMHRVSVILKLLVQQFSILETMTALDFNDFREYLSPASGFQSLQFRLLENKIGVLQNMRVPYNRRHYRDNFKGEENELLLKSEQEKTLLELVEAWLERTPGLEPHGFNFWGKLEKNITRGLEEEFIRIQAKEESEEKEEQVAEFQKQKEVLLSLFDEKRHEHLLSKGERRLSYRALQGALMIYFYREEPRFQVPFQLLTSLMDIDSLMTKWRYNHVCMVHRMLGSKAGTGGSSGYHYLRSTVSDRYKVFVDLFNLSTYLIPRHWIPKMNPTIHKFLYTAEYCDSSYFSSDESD
T1 sequence (P48775 whole entry): as above
T4 sequence (P14902 whole entry): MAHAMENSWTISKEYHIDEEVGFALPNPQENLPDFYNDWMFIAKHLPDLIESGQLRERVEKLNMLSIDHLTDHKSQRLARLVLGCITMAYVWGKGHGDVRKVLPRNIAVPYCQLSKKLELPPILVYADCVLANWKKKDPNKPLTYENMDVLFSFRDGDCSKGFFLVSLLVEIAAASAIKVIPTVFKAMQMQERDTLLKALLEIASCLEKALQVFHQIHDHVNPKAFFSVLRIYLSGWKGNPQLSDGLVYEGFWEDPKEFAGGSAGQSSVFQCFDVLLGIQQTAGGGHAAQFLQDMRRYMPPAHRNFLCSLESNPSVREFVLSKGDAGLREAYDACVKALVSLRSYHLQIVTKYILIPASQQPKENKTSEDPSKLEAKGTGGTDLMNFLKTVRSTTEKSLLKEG
T3 sequence (P14902 whole entry): as above

For orientation: IC50 means the point on the concentration scale where inhibition reaches its midpoint. On to `COCCCNC(=O)N1CCC(C(C)(C)C(O)c2cc(Cl)cc3cn[nH]c23)CC1` (stereo not drawn) [Compound P-0357, 4-(1-(5-chloro-1H-indazol-7-yl)-1-hydroxy-2-methyipropan-2-yl)-N-(3-methoxypropyl) piperidine-1-carboxamide], for which the IC50 in assay [1], in assay [2], in assay [3] and in assay [4] was 0.0001 to 10 µM throughout.

As for `CC(C)(C1CCN(C(=O)Nc2cccnc2)CC1)C(O)c1cc(Cl)cc2cn[nH]c12` (stereo not drawn) [Compound P-0358, 4-(1-(5-chloro-1H-indazol-7-yl)-1-hydroxy-2-methylpropan-2-yl)-N-(pyridin-3-yl)piperidine-1-carboxamide], the IC50 in assay [1], in assay [2], in assay [3] and in assay [4] was 0.0001 to 10 µM throughout.

Take `CC(C)(C1CCN(C(=O)Nc2cccc(F)c2)CC1)C(O)c1cc(Cl)cc2cn[nH]c12` (stereo not drawn) [Compound P-0359, 4-(1-(5-chloro-1H-indazol-7-yl)-1-hydroxy-2-methylpropan-2-yl)-N-(3-fluorophenyl) piperidine-1-carboxamide]: the IC50 in assay [1], in assay [2], in assay [3] and in assay [4] was 0.0001 to 10 µM in each case.

For the molecule `CC(C)(C1CCN(C(=O)Nc2cccc(C#N)c2)CC1)C(O)c1cc(Cl)cc2cn[nH]c12` (stereo not drawn) [Compound P-0360, 4-(1-(5-chloro-1H-indazol-7-yl)-1-hydroxy-2-methylpropan-2-yl)-N-(3-cyanophenyl) piperidine-1-carboxamide], the IC50 in assay [1], in assay [2], in assay [3] and in assay [4] was 0.0001 to 10 µM throughout.

On to `CC(C)(C1CCN(C(=O)Nc2ccc(Cl)cc2)CC1)C(O)c1cc(Cl)cc2cn[nH]c12` (stereo not drawn) [Compound P-0361, 4-(1-(5-chloro-1H-indazol-7-yl)-1-hydroxy-2-methylpropan-2-yl)-N-(4-chlorophenyl) piperidine-1-carboxamide], for which the IC50 in assay [1], in assay [2], in assay [3] and in assay [4] was 0.0001 to 10 µM in each case.

`CC(C)(C1CCN(C(=O)c2cccnc2)CC1)C(O)c1cc(Cl)cc2cn[nH]c12` (stereo not drawn) [Compound P-0362, (4-(1-(5-chloro-1H-indazol-7-yl)-1-hydroxy-2-methylpropan-2-yl)piperidin-1-yl)(pyridin-3-yl)methanone]: the IC50 in assay [1], in assay [2], in assay [3] and in assay [4] was 0.0001 to 10 µM each time.

Turning to `CC(C)(C1CCN(C(=O)c2ccc(C(F)(F)F)nc2)CC1)C(O)c1cc(Cl)cc2cn[nH]c12` (stereo not drawn) [Compound P-0363, (4-(1-(5-chloro-1H-indazol-7-yl)-1-hydroxy-2-methylpropan-2-yl)piperidin-1-yl)(6-(trifluoromethyl)pyridin-3-yl)methanone], the IC50 in assay [1], in assay [2], in assay [3] and in assay [4] was 0.0001 to 10 µM each time.

With `CC(C)(C1CCN(C(=O)c2ccccc2F)CC1)C(O)c1cc(Cl)cc2cn[nH]c12` (stereo not drawn) [Compound P-0364, (4-(1-(5-chloro-1H-indazol-7-yl)-1-hydroxy-2-methylpropan-2-yl)piperidin-1-yl)(2-fluorophenyl) methanone], the IC50 in assay [1], in assay [2], in assay [3] and in assay [4] was 0.0001 to 10 µM each time.

As for `CC(C)(C1CCN(C(=O)c2ccccn2)CC1)C(O)c1cc(Cl)cc2cn[nH]c12` (stereo not drawn) [Compound P-0365, (4-(1-(5-chloro-1H-indazol-7-yl)-1-hydroxy-2-methylpropan-2-yl)piperidin-1-yl)(pyridin-2-yl)methanone], the IC50 in assay [1], in assay [2], in assay [3] and in assay [4] was 0.0001 to 10 µM throughout.

With `CC(C)(C1CCN(C(=O)c2ccccc2C(F)(F)F)CC1)C(O)c1cc(Cl)cc2cn[nH]c12` (stereo not drawn) [Compound P-0366, (4-(1-(5-chloro-1H-indazol-7-yl)-1-hydroxy-2-methylpropan-2-yl)piperidin-1-yl)(2-(trifluoromethyl)phenyl)methanone], the IC50 in assay [1], in assay [2], in assay [3] and in assay [4] was 0.0001 to 10 µM each time.

`CC(C)(C1CCN(C(=O)c2ccc(N3CCOCC3)nc2)CC1)C(O)c1cc(Cl)cc2cn[nH]c12` (stereo not drawn) [Compound P-0367, (4-(1-(5-chloro-1H-indazol-7-yl)-1-hydroxy-2-methylpropan-2-yl)piperidin-1-yl)(6-morpholinopyridin-3-yl)methanone]: the IC50 in assay [1], in assay [2], in assay [3] and in assay [4] was 0.0001 to 10 µM throughout.

As to `CC(C)(C1CCN(C(=O)c2ccccc2Cl)CC1)C(O)c1cc(Cl)cc2cn[nH]c12` (stereo not drawn) [Compound P-0368, (4-(1-(5-chloro-1H-indazol-7-yl)-1-hydroxy-2-methylpropan-2-yl)piperidin-1-yl)(2-chlorophenyl) methanone], the IC50 in assay [1], in assay [2], in assay [3] and in assay [4] was 0.0001 to 10 µM each time.

Consider `CC(C)(C1CCN(C(=O)c2c(F)cccc2Cl)CC1)C(O)c1cc(Cl)cc2cn[nH]c12` (stereo not drawn) [Compound P-0369, (4-(1-(5-chloro-1H-indazol-7-yl)-1-hydroxy-2-methylpropan-2-yl)piperidin-1-yl)(2-chloro-6-fluorophenyl) methanone], for which the IC50 in assay [1], in assay [2], in assay [3] and in assay [4] was 0.0001 to 10 µM throughout.

Consider `CC(C)(C)OC(=O)N1CCC(C(C)(C)C(O)c2c(F)c(Cl)cc3cn[nH]c23)CC1` (stereo not drawn) [Compound P-0370, tert-butyl 4-(1-(5-chloro-6-fluoro-1H-indazol-7-yl)-1-hydroxy-2-methylpropan-2-yl)piperidine-1-carboxylate], for which the IC50 in assay [1], in assay [2], in assay [3] and in assay [4] was 0.0001 to 10 µM in each case.

As to `OC1(c2cc(Cl)cc3[nH]ncc23)CC2(CCCCC2)C1` [Compound P-0371, 2-(6-chloro-1H-indazol-4-yl)spiro[3.5] nonan-2-ol], the IC50 in assay [1] was 0.0001 to 10 µM; in assay [2], 0.0001 to 10 µM; in assay [3], 10 to 100 µM; in assay [4] it was above 10 µM.

`OC1(c2cc(Cl)cc3[nH]ncc23)CC2(CCOCC2)C1` [Compound P-0372, 2-(6-chloro-1H-indazol-4-yl)-7-oxaspiro[3.5] nonan-2-ol]: the IC50 is above 10 µM in assay [1], 0.0001 to 10 µM in assay [2], above 200 µM in assay [3] and 0.0001 to 10 µM in assay [4].

`C[C@@H](NC(=O)N1CCC(C(C)(C)C(O)c2cc(Cl)cc3cn[nH]c23)CC1)c1ccccc1` (stereo partly drawn) [Compound P-0373, 4-(1-(5-chloro-1H-indazol-7-yl)-1-hydroxy-2-methylpropan-2-yl)-N-((R)-1-phenylethyl) piperidine-1-carboxamide]: the IC50 in assay [1], in assay [2], in assay [3] and in assay [4] was 0.0001 to 10 µM in each case.

Regarding `CCC(=O)N1CCC(C(F)(F)C(O)c2c(F)c(Cl)cc3cn[nH]c23)CC1` (stereo not drawn) [Compound P-0374, 1-(4-(2-(5-chloro-6-fluoro-1H-indazol-7-yl)-1,1-difluoro-2-hydroxyethyl)piperidin-1-yl) propan-1-one], the IC50 in assay [1], in assay [2], in assay [3] and in assay [4] was 0.0001 to 10 µM in each case.

Turning to `CC(C)CC(=O)N1CCC(C(F)(F)C(O)c2c(F)c(Cl)cc3cn[nH]c23)CC1` (stereo not drawn) [Compound P-0375, 1-(4-(2-(5-chloro-6-fluoro-1H-indazol-7-yl)-1,1-difluoro-2-hydroxyethyl)piperidin-1-yl)-3-methylbutan-1-one], the IC50 in assay [1], in assay [2], in assay [3] and in assay [4] was 0.0001 to 10 µM throughout.

As for `COCC(=O)N1CCC(C(F)(F)C(O)c2c(F)c(Cl)cc3cn[nH]c23)CC1` (stereo not drawn) [Compound P-0376, 1-(4-(2-(5-chloro-6-fluoro-1H-indazol-7-yl)-1,1-difluoro-2-hydroxyethyl)piperidin-1-yl)-2-methoxyethan-1-one], the concentration for half-maximal inhibition (IC50) in assay [1], in assay [2], in assay [3] and in assay [4] was 0.0001 to 10 µM throughout.

Consider `CC(C)C(=O)N1CCC(C(F)(F)C(O)c2c(F)c(Cl)cc3cn[nH]c23)CC1` (stereo not drawn) [Compound P-0377, 1-(4-(2-(5-chloro-6-fluoro-1H-indazol-7-yl)-1,1-difluoro-2-hydroxyethyl)piperidin-1-yl)-2-methylpropan-1-one], for which the IC50 in assay [1], in assay [2], in assay [3] and in assay [4] was 0.0001 to 10 µM each time.

Values taken from patent publication US10508085B2, “Compounds and methods for IDO and TDO modulation, and indications therefor” (Plexxikon Inc., priority 2016, dated 2019).
